In patent US11123353B2 (Zhejiang Chinese Medical University, priority 2019, dated 2021):
Several values for one entry are separate records, joined by “and”; a condition that tells them apart may be missing. Identical values can stand only once.

Tests used:
[1] = tested on: PC-9/GR lung cancer xenografts; assay: Preliminary pharmacodynamic test in PC-9/GR tumor-bearing nude mice; assay type: in vivo, BABL/C nude mouse
Experimental: A PC-9/GR lung cancer cell line was digested from a culture flask, and then resuspended in 0.9% normal saline, and the cell concentration was adjusted to 2.5×10^7·mL^−1 and the cell was inoculated into the left axilla of BABL/C nude mouse. Each nude mouse was inoculated with 0.2 mL of a cell suspension.
The nude mice in each group were administered by tail vein injection.
After starting administration, the body mass of the nude mouse was regularly measured once, and the longest and shortest diameters of the tumor were measured with a vernier caliper to calculate the volume of the tumor. After consecutively administrating 7 times, the tumor volume of each group was measured and the tumor inhibitory rate of each administration group was calculated. Tumor volume (mm^3)=½×Long diameter (mm)×Short diameter (mm)^2
Tumor inhibitory rate (%)=(Average tumor weight of model control group (mg)—Average tumor weight of administration group (mg))/Average tumor weight of model control group (mg)×100%

[2] = In vitro release of GEF by dialysis in different pH release media; assay type: physicochemical; conditions: for cumulative release percentage of GEF: 37° C., listed as GEF raw medicine
Experimental: Due to its high lipid solubility, ERG could be dissolved in pure methanol or pure ethanol. However, the membranes of the liposomes directly ruptured in pure methanol or pure ethanol, and a release medium was difficult to meet the “sink” condition of ERG. Therefore, the in vitro release of ERG was not investigated in the experiment. […] Therefore, the in vitro release of GEF drug under different pH conditions was investigated in the experiment. […] Calculation was carried out according to the following formula: Cumulative release percentage Q (%)=(c1×V0+Σn=1^t-1Cv)/M0×100%
In the experiment, the in vitro release of GEF drug under different pH conditions was investigated. […] For specific operation, please refer to “5.7 Release Rate” in Part II in details.

A549 cells = assay: Cell cycle by PI flow cytometry, A549 cells; assay type: cell-based, human; conditions: A549, 48 h
Experimental: (§1) The number of cells in logarithmic growth phase was adjusted to 1.5×10^5·mL^−1, the cells were inoculated into a 6-well culture plate, and cultured in a 37° C. 5% CO2 incubator until 80% of the cells were fused and then a drug was added for treatment. […] After the drug acted for 48 h, a supernatant and cells were collected, centrifuged at 800 rpm·min^−1 for 10 min, washed once with PBS and fixed overnight with 75% ice ethanol, ethanol was discarded by centrifuging, and the cells were washed twice with PBS. The PBS was discarded, each sample was added with 0.5 ml of a PI staining solution to stain for 15 min at room temperature in the dark, and placed on a flow cytometer for measuring the proportion of cells in each cycle. The experiment was repeated 3 times.

PC-9 cells = assay: Cell cycle by PI flow cytometry, PC-9 cells; assay type: cell-based, human; conditions: PC-9, 48 h
Experimental: as §1
[…]. Other operations were the same as above.

[3] = tested on: PC-9/GR tumor-bearing nude mouse model; assay: In vivo fluorescence imaging targeting test (DiR); design: species or system nude mice; conditions: DiR 7.5 μg·mL^−1, 0.2 mL tail vein, within 24 h
Experimental: The nude mice with a body mass of approximately 25 g in the established PC-9/GR tumor-bearing nude mouse model were taken, and respectively injected with 0.2 mL of a DiR raw medicine, and DiR-coated RGD/R8-ERG/GEF-LIP and RGD/R8-ERG/GEF-LIP freeze-dried powder (DiR concentration: 7.5 μg·mL^−1) by tail vein injection, the nude mice were anesthetized with isoflurane at different time points, and placed in an in vivo imager to observe the distribution of liposome in vivo (Ex=748 nm, Em=780 nm, and exposure time: 2 s). After 24 h, after the last in vivo imaging was finished, the nude mice were killed, and the heart, liver, spleen, lung, kidney and tumor were taken out and placed in the in vivo imager to observe the distribution of liposome in the in vitro tissues. […] It is speculated that the particle size of freeze-dried powder is smaller than that of RGD/R8-ERG/GEF-LIP, which increases the probability of entering the tumor cells to a certain extent and increases the tumor targeting effect in vivo.

Structure (SMILES): COc1cc2ncnc(Nc3ccc(F)c(Cl)c3)c2cc1OCCCN1CCOCC1 [GEF, gefitinib]
- average tumor weight ([1]; compared with the model control group): highly significant difference
- tumor volume change ([1]; course over 15 days of administration): rapid growth trend after the 9th day of administration
- cumulative release percentage of GEF ([2]; pH 6.4 40% methanol-containing phosphate buffer, 24 h): 98.91% and 99.12%
- release model fitting ([2]; pH 6.4 release medium (FIG. 12)): conforms to the first-order kinetic equation
- release model fitting ([2]; pH 6.4 release medium (FIG. 25; freeze-dried powder first 4 h)): more in line with the first-order model
- cumulative release percentage of GEF ([2]; pH 7.4 40% methanol-containing phosphate buffer, within 24 h): 76.91% and 81.10%
- fitting correlation coefficient of the first-order kinetic equation ([2]; pH 7.4 release medium): 0.9952
- release model fitting ([2]; pH 7.4 release medium (FIG. 12)): closer to the Higuchi equation
- release model fitting ([2]; pH 7.4 release medium (FIG. 25; freeze-dried powder first 4 h)): more in line with the Higuchi model
- G0/G1 phase fraction (A549 cells; GEF 20 μM, combination of two drugs): 72.60±0.81%
- G0/G1 phase fraction (PC-9 cells; GEF 5 μM, ERG+GEF 40+5 μM): 78.35±1.58%

Structure (SMILES): CC(C)[C@@H](C)/C=C/[C@@H](C)[C@H]1CC[C@H]2C3=CC=C4C[C@@H](O)CC[C@]4(C)[C@H]3CC[C@]12C [ERG, ergosterol]
- S phase fraction (A549 cells; ERG 20 μM): 32.05±2.27%
- G2/M phase fraction (PC-9 cells; ERG 40 μM): 13.58±1.80%
- S phase fraction (PC-9 cells; ERG 40 μM, ERG+GEF 40+5 μM): 26.93±2.02%

Structure (SMILES): CCCCCCCCCCCCCCCCCCN1/C(=C/C=C/C=C/C=C/C2=[N+](CCCCCCCCCCCCCCCCCC)c3ccccc3C2(C)C)C(C)(C)c2ccccc21.[I-] [DiR raw medicine]
- fluorescence accumulation in the tumor site [3]: not accumulated in the tumor site
